# Tests used:
# Myeloperoxidase (MPO) = assay: Myeloperoxidase ELISA in supernatant of Mutz-3 cells; format: cell-based, human; conditions: FIG. 4
# Excerpt: (§1) As an alternative approach to find predictive markers for sensitizing potential we explored the potential of cell culture supernatants as a source of markers for chemical safety by adopting a more targeted approach using commercially available immunoassays to measure the levels of three known inflammatory markers. The three proteins to be measured by ELISA were selected on the basis of a review of literature references to secreted inflammatory protein response to chemical sensitizer. Cells were cultured as described in Example 1 and the spent medium removed for direct analysis by ELISA. All kits were used in accordance with manufacturer's instructions.
# MPO is a peroxidase enzyme which is stored in lysosomes and released during inflammation Myeloperoxidase was measured by ELISA (Assay-Designs) (FIG. 4).
# [1] = system: Calprotectin (S100A8/S100A9); assay: Calprotectin immunoassay in supernatant of Mutz-3 cells; format: cell-based, human; conditions: FIG. 5
# Excerpt: as §1
# Calprotectin is heterodimer of S100A8/S100A9 was measured in supernatant of Mutz-3 cells by a commercially available immunoassay (Immundiagnostik AG, Bensheim, Germany) (FIG. 5). Calprotectin is actively secreted by phagocytes in response to stress and binds to Toll-like receptor 4 (TLR4). Toll-like receptors play an important role in the innate immune system and activation of TLR4 by calprotectin further amplifies inflammation (Ehrchen et al. 2009). TLR4 and interleukin 12 double knock-out mice, show a marked decrease of DC-sensitization by a broad range of different sensitizers including 2,4,6-trinitro-1-chlorobenzene (TNCB), oxazolone, and fluorescein isothiocyanate (Martin et al. 2008). […]
# MUTZ-3 cells = assay: PLS score plot of proteomic response, fourth study; format: cell-based, human; conditions: FIG. 3, ANOVA filtered protein list
# Experimental: In the fourth study (40-002—8) Mutz-3 cells were incubated with 2 contact sensitizer (120 μM cinnamic aldehyde, 4 μM DNCB), 1 respiratory sensitizer (150 μM TMA), 1 irritant (200 μM SDS) and 1 controls (untreated).
# A preferred method for classification of chemicals is employing partial least squares regression analysis (PLS). PLS discriminant analysis identifies the most important classifiers from the list of interest. A model was built using the response variables (y) highlighted in red and the ANOVA filtered proteins as predictors (x). The first PLS components (x-axis) was plotted against the second PLS component (y-axis) and separated the biomarkers having a role in classifying the three experimental groups “control”, “irritant” and sensitizer”.
# In the score plot each point represents one 1 sample. Based on the ANOVA filtered protein list samples a good separation between control, sensitizer and irritant treated samples was achieved.
# dendritic cell lines = conditions: Mitjans et al. 2009; cited from earlier work
SMILES,MPO release into supernatant of Mutz-3 cells (Myeloperoxidase (MPO)),S100A8/S100A9 (calprotectin) levels in supernatant of Mutz-3 cells [1],relative distance of treated samples from control in PLS score plot (MUTZ-3 cells),response of the IL-8 assay (dendritic cell lines)
"O=[N+]([O-])c1ccc(Cl)c([N+](=O)[O-])c1 [DNCB, 1-chloro-2,4-dinitrobenzene]",activates an inflammatory pathway involving release of the peroxidase enzyme MPO,modulated,greatest relative distance from the control,
"O=C(O)c1ccc2c(c1)C(=O)OC2=O [TMA, Trimellitic anhydride]",does not activate this pathway,,smaller distance to control sample,fails to respond
